Experimental data as given in paper PMC4245125, “Pharmacological and Behavioral Characterization of D-473, an Orally Active Triple Reuptake Inhibitor Targeting Dopamine, Serotonin and Norepinephrine Transporters” (PLoS ONE, 2014).
Several values for one entry are separate records, joined by “and”; a condition that tells them apart may be missing. Identical values can stand only once.

Assays:
D2 = molecular target: T1, D2 (Homo sapiens, UniProt P14416); assay: NIMH PDSP receptor binding, D2; conditions: [3H]N-methylspiperone, read-out: % Inhibition of Binding at 10 µM D-473
T1 construct: purchased NIMH PDSP

D5 = D5 (Homo sapiens, UniProt P21918); assay: NIMH PDSP receptor binding, D5
5HT1d = molecular target: T2, 5HT1d (Homo sapiens, UniProt P28221); assay: NIMH PDSP receptor binding, 5HT1d; conditions: [3H]GR-125743, read-out: % Inhibition of Binding at 10 µM D-473
T2 construct: purchased NIMH PDSP

5HT2c = molecular target: T3, 5HT2c (Homo sapiens, UniProt P28335); assay: NIMH PDSP receptor binding, 5HT2c; conditions: [3H]Mesulergine, read-out: % Inhibition of Binding at 10 µM D-473
T3 construct: purchased NIMH PDSP

5HT6 = molecular target: T4, 5HT6 (Homo sapiens, UniProt P50406); assay: NIMH PDSP receptor binding, 5HT6; conditions: [3H]LSD, read-out: % Inhibition of Binding at 10 µM D-473
T4 construct: purchased NIMH PDSP

5HT7 = molecular target: T5, 5HT7 (Homo sapiens, UniProt P34969); assay: NIMH PDSP receptor binding, 5HT7; conditions: [3H]LSD, read-out: % Inhibition of Binding at 10 µM D-473
T5 construct: purchased NIMH PDSP

Alpha1B = molecular target: T6, Alpha1B (Homo sapiens, UniProt P35368); assay: NIMH PDSP receptor binding, Alpha1B; conditions: [3H]Prazosin, read-out: % Inhibition of Binding at 10 µM D-473
T6 construct: purchased NIMH PDSP

Beta1 = molecular target: T7, Beta1 (Homo sapiens, UniProt P08588); assay: NIMH PDSP receptor binding, Beta1; conditions: [125I]Iodopindolol, read-out: % Inhibition of Binding at 10 µM D-473
T7 construct: purchased NIMH PDSP

κ-opioid = molecular target: T8, κ-opioid (Homo sapiens, UniProt P41145); assay: NIMH PDSP receptor binding, κ-opioid; conditions: [3H]Bremazocine, read-out: % Inhibition of Binding at 10 µM D-473
T8 construct: purchased NIMH PDSP

[1] = test system: extracellular DA, 5-HT, NE and metabolites in the medial prefrontal cortex (mPFC); assay: Microdialysis in medial prefrontal cortex, monoamines and metabolites; assay type: in vivo, rat; conditions: 10 mg/kg i.p.
Protocol: Adult male Sprague-Dawley rats (Harlan, Indianapolis, IN) weighing between 250 and 350 g were used for all experiments. Rats were housed in a temperature and humidity controlled room with 12 hr light/dark cycles with food and water available ad libitum. Adequate measures were taken to prevent animal pain and discomfort. All animals were treated as approved by the University of Michigan Unit for Laboratory Animal Medicine (ULAM) and in accordance with the National Institute of Health (NIH) Guidelines for the Care and Use of Laboratory Animals.
Rats were anesthetized with using an isoflurane vaporizer that was interfaced to a model 963 Ultra Precise stereotaxic instrument with 0.1 mm resolution (David Kopf Instruments, Tujunga, CA). Concentrically designed microdialysis probes (1 mm dialyzing length) were built in house then implanted bilaterally into the dorsal lateral striatum (DLS) and the medial prefrontal cortex (mPFC) according to the following coordinates from bregma and dura (in mm): AP +1, ML +3.3, DV –5.7 and AP +3, ML −0.5, DV −5, respectively (Paxinos and Watson, 2007). […] 1 mm probes were selected for higher spatial resolution and lower tissue damage compared to larger probes. Probes were secured to the skull by acrylic dental cement and metallic screws. Following surgery, rats were allowed to recover and experiments were run 24 hr after probe implantation. Microdialysis probes were flushed at a flow rate of 2 µl/min with aCSF (composition in mM: CaCl2 1.2; KCl 2.7, NaCl 148 and MgCl2 0.85) for 2 hr using a Chemyx Fusion 400 syringe pump (Chemyx, Stafford, TX). Perfusion flow rate was then reduced to 1 µl/min and samples were collected every 10 min. Baseline values were collected for 50 min and then the drug D-473 was injected (10 mg/kg, i.p.) and samples were collected for an additional 2 h. When experiments were completed, animals were euthanized and then brains were extracted and frozen at −80°C until histology.
Dopamine, norepinephrine (NE), serotonin (5HT), DOPAC, homovanillic acid (HVA) and 5-hydroxyindole acetic acid (5-HIAA) were analyzed using a benozyolation derivitization LC-MS method recently described by our laboratory. Briefly, 10 µl dialysate samples were derivatized by adding 5 µl of 100 mM sodium tetraborate, 5 µl of 2% benzoyl chloride in acetonitrile, and then 5 µl of a stable ^13C benzoylated isotope internal standard mixture was then added to improve quantitation. A Thermo Fisher Accela UHPLC (Waltham, MA) system automatically injected 5 µl of the sample onto a Waters (Milford, MA) HSS T3 reverse phase HPLC column (1 mm X 100 mm, 1.8 µm). Mobile phase A consisted of 10 mM ammonium formate and 0.15% formic acid. Mobile phase B was pure acetonitrile. Analytes were detected by an Thermo Fisher TSQ Quantum Ultra triple quadrupole mass spectrometer operating in multiple reaction monitoring (MRM) mode. The assay limits of detection were (nM in dialysate) for DA, 0.3; NE, 0.2; 5HT, 0.1; HVA, 0.5; DOPAC, 2; and 5HIAA, 5. […] Average standard deviation in above basal levels was 18%.
All neurochemical data were transformed into percent baseline with baseline values all averaging 100%. Statistical analysis was performed by t-test analysis of every point relative to baseline values (i.e. 100%) using Prism 6 (Graphpad Software Inc, La Jolla, CA). P values <0.05 were considered to be statistically significant.

[2] = test system: CNS GPCR receptors and ion channels; assay: CNS broad receptors screening, summary statements by receptor family; assay type: binding
hNET = hNET (Homo sapiens, UniProt P23975); assay: Inhibition of [3H]DA uptake by cloned human NET in HEK293 cells
hSERT = hSERT (Homo sapiens, UniProt P31645); assay: Inhibition of [3H]5-HT uptake by cloned human SERT in HEK293 cells
Sequence of hSERT (P31645 whole entry): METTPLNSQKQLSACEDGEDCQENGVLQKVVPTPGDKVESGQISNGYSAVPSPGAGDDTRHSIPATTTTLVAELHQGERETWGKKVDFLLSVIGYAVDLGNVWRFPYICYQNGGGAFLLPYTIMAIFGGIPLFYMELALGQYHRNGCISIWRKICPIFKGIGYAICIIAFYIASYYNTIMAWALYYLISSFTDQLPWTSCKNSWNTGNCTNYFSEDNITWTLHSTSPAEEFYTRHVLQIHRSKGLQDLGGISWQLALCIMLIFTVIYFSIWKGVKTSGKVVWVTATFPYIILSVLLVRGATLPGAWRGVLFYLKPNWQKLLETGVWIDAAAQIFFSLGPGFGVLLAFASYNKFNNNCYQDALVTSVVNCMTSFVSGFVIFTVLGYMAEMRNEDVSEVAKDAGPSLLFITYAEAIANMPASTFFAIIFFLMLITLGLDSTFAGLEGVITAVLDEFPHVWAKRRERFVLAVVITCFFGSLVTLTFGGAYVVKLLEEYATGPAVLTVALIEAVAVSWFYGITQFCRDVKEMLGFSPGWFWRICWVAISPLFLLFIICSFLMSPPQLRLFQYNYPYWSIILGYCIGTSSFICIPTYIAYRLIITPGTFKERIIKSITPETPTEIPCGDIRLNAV

Sequence of hNET (P23975 whole entry): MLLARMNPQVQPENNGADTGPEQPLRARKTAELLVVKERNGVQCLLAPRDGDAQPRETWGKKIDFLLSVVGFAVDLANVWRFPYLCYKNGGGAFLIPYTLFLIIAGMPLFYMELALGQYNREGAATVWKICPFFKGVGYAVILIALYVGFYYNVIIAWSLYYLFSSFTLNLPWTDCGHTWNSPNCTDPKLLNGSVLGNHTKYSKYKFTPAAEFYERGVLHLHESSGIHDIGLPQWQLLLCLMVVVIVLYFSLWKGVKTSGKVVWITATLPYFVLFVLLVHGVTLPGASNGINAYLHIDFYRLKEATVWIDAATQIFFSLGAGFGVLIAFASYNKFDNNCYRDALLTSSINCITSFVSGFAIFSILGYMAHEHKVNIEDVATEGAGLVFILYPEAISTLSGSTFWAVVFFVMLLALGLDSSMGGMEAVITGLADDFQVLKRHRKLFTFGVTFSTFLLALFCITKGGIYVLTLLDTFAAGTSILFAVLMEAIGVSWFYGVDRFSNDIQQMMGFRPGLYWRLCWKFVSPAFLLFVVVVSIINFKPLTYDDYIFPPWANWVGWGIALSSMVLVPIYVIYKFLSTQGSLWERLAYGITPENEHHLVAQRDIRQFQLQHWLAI
Sequence of D5 (P21918 whole entry): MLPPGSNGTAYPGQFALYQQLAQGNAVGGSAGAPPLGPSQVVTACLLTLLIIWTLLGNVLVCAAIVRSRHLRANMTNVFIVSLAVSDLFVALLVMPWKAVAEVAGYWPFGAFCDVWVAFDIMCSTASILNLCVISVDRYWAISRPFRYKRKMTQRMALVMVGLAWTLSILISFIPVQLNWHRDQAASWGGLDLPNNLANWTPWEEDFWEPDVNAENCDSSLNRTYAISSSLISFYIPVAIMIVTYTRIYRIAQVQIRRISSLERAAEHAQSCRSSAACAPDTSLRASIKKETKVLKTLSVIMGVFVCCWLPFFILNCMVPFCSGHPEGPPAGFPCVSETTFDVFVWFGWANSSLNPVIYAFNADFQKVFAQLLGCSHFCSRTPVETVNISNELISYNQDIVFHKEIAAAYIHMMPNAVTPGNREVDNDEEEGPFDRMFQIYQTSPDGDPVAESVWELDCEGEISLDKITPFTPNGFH
T1 sequence (P14416 whole entry): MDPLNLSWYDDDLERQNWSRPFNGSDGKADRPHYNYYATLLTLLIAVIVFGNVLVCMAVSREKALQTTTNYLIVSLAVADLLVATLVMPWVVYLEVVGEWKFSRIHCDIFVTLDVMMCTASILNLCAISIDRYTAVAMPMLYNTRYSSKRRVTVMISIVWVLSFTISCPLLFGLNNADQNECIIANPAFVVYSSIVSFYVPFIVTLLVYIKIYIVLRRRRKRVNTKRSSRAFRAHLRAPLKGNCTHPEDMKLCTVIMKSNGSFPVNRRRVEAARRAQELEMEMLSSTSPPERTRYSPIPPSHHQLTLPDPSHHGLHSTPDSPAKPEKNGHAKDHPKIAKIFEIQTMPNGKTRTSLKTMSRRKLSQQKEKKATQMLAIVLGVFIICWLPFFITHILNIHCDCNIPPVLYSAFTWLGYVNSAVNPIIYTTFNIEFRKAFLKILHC
T8 sequence (P41145 whole entry): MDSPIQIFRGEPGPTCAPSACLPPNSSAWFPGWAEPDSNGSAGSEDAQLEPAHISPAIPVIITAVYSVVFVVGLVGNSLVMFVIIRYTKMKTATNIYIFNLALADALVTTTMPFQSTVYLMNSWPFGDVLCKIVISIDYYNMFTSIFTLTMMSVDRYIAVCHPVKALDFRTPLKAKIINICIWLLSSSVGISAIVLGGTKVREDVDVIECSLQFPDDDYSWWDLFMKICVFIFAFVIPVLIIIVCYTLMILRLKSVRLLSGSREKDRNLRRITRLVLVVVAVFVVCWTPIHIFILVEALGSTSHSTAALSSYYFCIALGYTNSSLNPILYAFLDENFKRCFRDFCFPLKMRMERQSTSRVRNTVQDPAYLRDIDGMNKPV
T7 sequence (P08588 whole entry): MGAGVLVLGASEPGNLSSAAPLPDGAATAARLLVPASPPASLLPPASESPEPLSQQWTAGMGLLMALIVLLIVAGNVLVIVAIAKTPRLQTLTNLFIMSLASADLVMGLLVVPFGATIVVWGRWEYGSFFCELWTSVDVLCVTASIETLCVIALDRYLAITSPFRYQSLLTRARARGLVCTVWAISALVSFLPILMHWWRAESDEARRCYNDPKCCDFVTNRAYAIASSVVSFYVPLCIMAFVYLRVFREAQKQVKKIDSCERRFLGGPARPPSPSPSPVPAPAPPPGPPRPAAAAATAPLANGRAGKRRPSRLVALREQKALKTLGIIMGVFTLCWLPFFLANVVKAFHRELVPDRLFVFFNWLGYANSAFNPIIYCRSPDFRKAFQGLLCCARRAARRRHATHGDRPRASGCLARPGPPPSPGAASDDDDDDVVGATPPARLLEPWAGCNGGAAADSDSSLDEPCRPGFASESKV
T4 sequence (P50406 whole entry): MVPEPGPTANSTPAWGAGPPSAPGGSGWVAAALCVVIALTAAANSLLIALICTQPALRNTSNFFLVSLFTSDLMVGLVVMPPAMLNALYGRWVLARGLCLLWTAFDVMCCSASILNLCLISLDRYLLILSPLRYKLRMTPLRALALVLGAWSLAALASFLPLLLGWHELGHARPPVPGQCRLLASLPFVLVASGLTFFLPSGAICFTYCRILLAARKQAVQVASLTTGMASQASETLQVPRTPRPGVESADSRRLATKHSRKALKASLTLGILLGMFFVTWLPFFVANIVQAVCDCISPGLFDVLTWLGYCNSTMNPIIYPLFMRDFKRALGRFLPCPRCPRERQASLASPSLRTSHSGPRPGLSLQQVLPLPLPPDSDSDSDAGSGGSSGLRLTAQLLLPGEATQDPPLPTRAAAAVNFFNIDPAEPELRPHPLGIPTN
T2 sequence (P28221 whole entry): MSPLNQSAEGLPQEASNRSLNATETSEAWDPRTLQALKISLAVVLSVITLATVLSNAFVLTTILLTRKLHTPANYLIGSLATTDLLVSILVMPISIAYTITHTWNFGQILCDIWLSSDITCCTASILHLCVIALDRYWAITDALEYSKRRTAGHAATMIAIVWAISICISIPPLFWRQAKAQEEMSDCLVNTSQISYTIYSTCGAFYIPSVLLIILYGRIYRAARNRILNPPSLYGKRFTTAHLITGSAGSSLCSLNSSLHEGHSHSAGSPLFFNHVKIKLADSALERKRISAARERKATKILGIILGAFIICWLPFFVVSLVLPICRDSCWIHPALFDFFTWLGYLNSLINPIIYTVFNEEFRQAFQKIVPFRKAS
T6 sequence (P35368 whole entry): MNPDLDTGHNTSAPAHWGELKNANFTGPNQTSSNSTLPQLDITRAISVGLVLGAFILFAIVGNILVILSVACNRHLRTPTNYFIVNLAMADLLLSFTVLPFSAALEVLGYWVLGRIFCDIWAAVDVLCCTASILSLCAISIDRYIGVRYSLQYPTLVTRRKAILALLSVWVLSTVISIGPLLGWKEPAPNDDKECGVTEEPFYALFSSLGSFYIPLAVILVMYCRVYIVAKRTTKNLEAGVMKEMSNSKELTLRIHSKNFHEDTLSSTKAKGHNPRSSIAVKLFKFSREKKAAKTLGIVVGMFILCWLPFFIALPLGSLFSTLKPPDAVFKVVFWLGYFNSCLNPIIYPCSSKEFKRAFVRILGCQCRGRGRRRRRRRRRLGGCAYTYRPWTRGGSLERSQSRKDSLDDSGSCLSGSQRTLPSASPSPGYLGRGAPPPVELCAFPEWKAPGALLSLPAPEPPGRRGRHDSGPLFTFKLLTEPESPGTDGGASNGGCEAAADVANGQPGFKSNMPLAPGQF
T3 sequence (P28335 33-458): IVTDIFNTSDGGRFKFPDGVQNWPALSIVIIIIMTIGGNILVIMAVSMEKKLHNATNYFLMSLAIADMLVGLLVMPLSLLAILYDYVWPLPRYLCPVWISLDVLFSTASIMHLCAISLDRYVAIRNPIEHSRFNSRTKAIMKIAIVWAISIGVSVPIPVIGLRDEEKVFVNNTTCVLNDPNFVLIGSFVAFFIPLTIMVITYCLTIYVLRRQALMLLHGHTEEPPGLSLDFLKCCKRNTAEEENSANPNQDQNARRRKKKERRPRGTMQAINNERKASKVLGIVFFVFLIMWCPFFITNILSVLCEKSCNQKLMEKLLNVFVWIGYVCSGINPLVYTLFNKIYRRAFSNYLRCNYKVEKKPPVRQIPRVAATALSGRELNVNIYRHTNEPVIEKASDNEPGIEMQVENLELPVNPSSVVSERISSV

Compound `COc1ccc(CN[C@@H]2CO[C@H](C(c3ccc(F)cc3)c3ccc(F)cc3)C[C@H]2O)cc1` [Compound D-473, (2S,4R,5R)-2-(bis(4-fluorophenyl)methyl)-5-((4-methoxybenzyl)amino)tetrahydro-2H-pyran-4-ol] has an inhibition at 10 µM (D2) of 42.9%, an inhibition at 10 µM (D5; [3H]SCH 23390, 10 µM, read-out: % Inhibition of Binding at 10 µM D-473) of 74.7% and a Ki (D5; [3H]SCH 23390, secondary assay, read-out: Ki for D-473) of 1570 nM. For the same compound, the inhibition at 10 µM (5HT1d) was 39%, the inhibition at 10 µM (5HT2c) was 45.4% and the inhibition at 10 µM (5HT6) was -11.4%. The inhibition at 10 µM (5HT7) was 41.4%, the inhibition at 10 µM (Alpha1B) was 16.6% and the inhibition at 10 µM (Beta1) was 24.6%. The inhibition at 10 µM (κ-opioid) was 48.5%, the “Reductions in dialysate DOPAC” value ([1]; Figure 8, region not specified) was “up to 35%” and the “Change in the level of 5-HIAA” value ([1]; region not specified (mPFC and DLS studied)) was “did not observe any change”. For the same compound, the “Effect on HVA” value ([1]; mPFC) was “lack of effect”, the “Increase of 5-HT” value ([1]; mPFC) was over 3 fold and the “Increase of DA” value ([1]; mPFC) was 4 fold. The “Increase of NE” value ([1]; mPFC) was over 5 fold, the “Reduction of DOPAC, maximal” value ([1]; mPFC) was 35–40% and the “Extracellular 5-HT at the end of two hours, percent baseline” value ([1]; mPFC, baseline 100%) was 150%. The “Extracellular 5HT, maximal, percent baseline” value ([1]; mPFC, baseline 100%) was 339%, the “Extracellular DA at the end of two hours, percent baseline” value ([1]; mPFC, baseline 100%) was 122% and the “Extracellular DA, maximal, percent baseline” value ([1]; mPFC, baseline 100%) was 394%. The “Extracellular NE at the end of two hours, percent baseline” value ([1]; mPFC, baseline 100%) was 173%, the “Extracellular NE, maximal, percent baseline” value ([1]; mPFC, baseline 100%) was 547% and the “Affinity for alpha adrenergic or beta adrenergic receptors subtypes” value [2] was “did not show any appreciable affinity”. For the same compound, the “Affinity for muscarinic receptor subtypes” value [2] was “Lack of any affinity”, the “Affinity for opioid receptors, calcium channel and GABA receptor” value [2] was “did not show any affinity” and the Ki ([2]; dopamine and serotonin receptor subtypes other than D1, D5, 5HT2b, read-out: Ki at dopamine and serotonin receptor subtypes (generally)) was over 10000 nM. The Ki (hNET; NET uptake, Ki, nM [3H]DA, HEK293 cells expressing hNET, average±S.E.M., 3 to 10 determinations) was 39 nM and 39.7 nM, the “Activity at NET relative to DAT” value (hNET; hNET vs hDAT uptake inhibition) was “roughly two fold more potent” and the Ki (hSERT) was 9.18 ± 1.69 nM. For the same compound, the “Potency at SERT relative to Fluoxetine” value (hSERT; hSERT uptake inhibition) was “almost one and a half fold greater”.
